Consider eight molecules from ChEMBL document CHEMBL3108775, “Rescuing biological activity from synthetic phakellistatin 19” (J Med Chem, 2013).

Each structure is given as a SMILES string. Numbered stars: 1 amine (or outer) side, 2 acyl side, 3 side chain; on linkers, the order of the positions; unused ones are H or OH. Square brackets hold non-standard residues; d marks the D form. Peptide text beside a SMILES is read from it. X1 = CC1(C)SC[C@@H](C(=O)[*:2])N1[*:1]

In assay [1] the test system is A549. Briefly: Cytotoxicity against human A549 cells by MTT assay. The assay is classed as functional. For orientation: Tetrazolium assays rely on reduction of a dye to a coloured formazan, in cell work by metabolically active cells.
In assay [2] the test system is MDA-MB-231. Briefly: Cytotoxicity against human MDA-MB-231 cells by MTT assay. The assay is classed as functional.
Assay [3] has as its system HT-29. Kind of assay: Cytotoxicity against human HT-29 cells by MTT assay. The assay is classed as functional.
Assay [4] has as its system A549. Briefly: Antimitotic activity against human A549 cells. It is filed as functional, cell-based.
Assay [5] has as its system HT-29. Briefly: Antimitotic activity against human HT-29 cells. It is filed as functional, cell-based.
Assay [6] concerns MDA-MB-231. Briefly: Antimitotic activity against human MDA-MB-231 cells. It is filed as functional, cell-based.

Regarding `CC[C@H](C)[C@@H]1NC(=O)[C@@H]2CCCN2C(=O)[C@H]([C@@H](C)O)NC(=O)[C@H](CC(C)C)NC(=O)[C@@H]2CCCN2C(=O)[C@H](Cc2ccccc2)NC(=O)[C@H](Cc2c[nH]c3ccccc23)NC(=O)[C@@H]2CSC(C)(C)N2C1=O` (cyclo(FPLTPI[X1]W)), the GI50 in assay [1], in assay [2] and in assay [3] was over 10 µM each time. In addition, the LC50 in assay [1], in assay [2] and in assay [3] was over 10 µM each time. In addition, the TGI in assay [1], in assay [2] and in assay [3] was over 10 µM throughout.
With `CC[C@H](C)[C@@H]1NC(=O)[C@@H]2CSC(C)(C)N2C(=O)[C@H]([C@@H](C)O)NC(=O)[C@H](CC(C)C)NC(=O)[C@@H]2CCCN2C(=O)[C@H](Cc2ccccc2)NC(=O)[C@H](Cc2c[nH]c3ccccc23)NC(=O)[C@@H]2CCCN2C1=O` (cyclo(FPLT[X1]IPW)), in assay [1], the GI50 (commonly the concentration at which growth is held to half of that of the control) was over 10 µM; the LC50 (commonly the concentration that kills 50% of the test population) is over 10 µM; the TGI (as a rule, the concentration at which net growth stops) is over 10 µM. Besides, in assay [2], halving of growth (GI50) required 2.7 µM, the LC50 stood at 6.01 µM and total growth inhibition (TGI) required 4.11 µM. In assay [3], this molecule displayed a GI50 of 4.01 µM, an LC50 of 4.61 µM and a TGI of 4.21 µM.
In assay [1], `CC[C@H](C)[C@@H]1NC(=O)[C@@H]2CSC(C)(C)N2C(=O)[C@H]([C@@H](C)O)NC(=O)[C@H](CC(C)C)NC(=O)[C@@H]2CCCN2C(=O)[C@H](Cc2ccccc2)NC(=O)[C@H](Cc2c[nH]c3ccccc23)NC(=O)[C@@H]2CSC(C)(C)N2C1=O` (cyclo(FPLT[X1]I[X1]W)) returned a GI50 of 3.64 µM, an LC50 of over 9.58 µM and a TGI of over 9.58 µM. Moreover, in assay [2], the GI50 came to 2.2 µM, the LC50 was determined as 5.08 µM and the TGI stood at 3.35 µM. In assay [3], the GI50 is 1.82 µM, the LC50 stood at 2.39 µM and the TGI is 2.11 µM.
Take `CC[C@H](C)[C@@H]1NC(=O)[C@@H]2CCCN2C(=O)[C@H]([C@@H](C)O)NC(=O)[C@H](CC(C)C)NC(=O)[C@@H]2CSC(C)(C)N2C(=O)[C@H](Cc2ccccc2)NC(=O)[C@H](Cc2c[nH]c3ccccc23)NC(=O)[C@@H]2CCCN2C1=O` (cyclo(F[X1]LTPIPW)): in assay [1], the GI50 was over 10 µM, the LC50 is over 10 µM and the TGI is over 10 µM. Also, in assay [2], it took 6.11 µM to inhibit growth by half (GI50), the LC50 was over 10 µM and the TGI is over 10 µM. In assay [3], this molecule yielded a GI50 of 5.71 µM, an LC50 of over 10 µM and a TGI of over 10 µM.
As for `CC[C@H](C)[C@@H]1NC(=O)[C@@H]2CCCN2C(=O)[C@H]([C@@H](C)O)NC(=O)[C@H](CC(C)C)NC(=O)[C@@H]2CSC(C)(C)N2C(=O)[C@H](Cc2ccccc2)NC(=O)[C@H](Cc2c[nH]c3ccccc23)NC(=O)[C@@H]2CSC(C)(C)N2C1=O` (cyclo(F[X1]LTPI[X1]W)), in assay [1], the GI50 is over 9.58 µM, the LC50 was over 9.58 µM and the TGI was over 9.58 µM. In assay [2], this molecule displayed a GI50 of 5.65 µM, an LC50 of over 9.58 µM and a TGI of over 9.58 µM. In assay [3], this molecule registered a GI50 of 3.16 µM, an LC50 of over 9.58 µM and a TGI of 6.61 µM.
In assay [1], `CC[C@H](C)[C@@H]1NC(=O)[C@@H]2CSC(C)(C)N2C(=O)[C@H]([C@@H](C)O)NC(=O)[C@H](CC(C)C)NC(=O)[C@@H]2CSC(C)(C)N2C(=O)[C@H](Cc2ccccc2)NC(=O)[C@H](Cc2c[nH]c3ccccc23)NC(=O)[C@@H]2CCCN2C1=O` (cyclo(F[X1]LT[X1]IPW)) returned a GI50 of 3.45 µM, an LC50 of over 9.58 µM and a TGI of 7.85 µM. In assay [2], this molecule showed a GI50 of 1.72 µM, an LC50 of 2.3 µM and a concentration for total growth inhibition (TGI) of 2.01 µM. Further, in assay [3], the GI50 was 1.82 µM, the LC50 was found to be 2.68 µM and the TGI is 2.2 µM.
For the molecule `CC[C@H](C)[C@@H]1NC(=O)[C@@H]2CSC(C)(C)N2C(=O)[C@H]([C@@H](C)O)NC(=O)[C@H](CC(C)C)NC(=O)[C@@H]2CSC(C)(C)N2C(=O)[C@H](Cc2ccccc2)NC(=O)[C@H](Cc2c[nH]c3ccccc23)NC(=O)[C@@H]2CSC(C)(C)N2C1=O` (cyclo(F[X1]LT[X1]I[X1]W)), the GI50 is 1.47 µM in assay [1], 1.65 µM in assay [2] and 1.38 µM in assay [3]. Moreover, the LC50 in assay [1] was 1.83 µM; in assay [2], 2.2 µM; in assay [3], 2.11 µM. Moreover, the TGI in assay [1] was determined as 1.65 µM; in assay [2], 1.93 µM; in assay [3], 1.74 µM.
Take `CC[C@H](C)[C@@H]1NC(=O)[C@@H]2CCCN2C(=O)[C@H]([C@@H](C)O)NC(=O)[C@H](CC(C)C)NC(=O)[C@@H]2CCCN2C(=O)[C@H](Cc2ccccc2)NC(=O)[C@H](Cc2c[nH]c3ccccc23)NC(=O)[C@@H]2CCCN2C1=O` [STYLISSAMIDE X] (cyclo(FPLTPIPW)): the IC50 in assay [4], in assay [5] and in assay [6] was 0.084 µM throughout. Besides, the GI50 in assay [1] came out at 0.44 µM; in assay [2] it was 0.515 µM; in assay [3], 0.462 µM. Also, the LC50 in assay [1], in assay [2] and in assay [3] was over 10.5 µM each time. For the same molecule, the TGI in assay [1] is 1.16 µM; in assay [2], 1.47 µM; in assay [3], 0.672 µM.
